Experimental data from BindingDB's records for doi:10.1021/jm990039i (Southern Research Institute, 1999).

Assay: The opioid antagonist potency against PL-107 mu-opioid receptor from guinea pig ileum(GPI).Ke (nM) = [antagonist]/(IC50 ratio-1)

Oc1ccc2c3c1O[C@H]1c4ncc(-c5ccccc5)cc4C[C@@]4(O)[C@@H](C2)N(CC2CC2)CC[C@]314 gave a Ki of 42 nM.
